This passage reports remaining activity results from patent publication US20100063085A1, “METHOD OF TREATING LEARNING IMPAIRMENT IN DOWN'S SYNDROME SUBJECTS” (University Court of The University of Dundee, priority 2008, published 2010).

Structures are written as SMILES. Where two headings read alike, the source gives them in different places.

What all share (format): biochemical
For one assay, the target named is JNK/SAPK1c (Homo sapiens, UniProt P45983). Description: JNK/SAPK1c 33P kinase assay. The note with it: read-out: JNK/SAPK1c activity as percentage of control without inhibitor. On the procedure: (§1) All assays (25.5 μl) were carried out at room temperature (21° C.) and were linear with respect to time and enzyme concentrations under the conditions used. Assays were performed for 30 minutes except assays for LCK and PKB which were performed for 15 minutes using Multidrop Micro reagent dispensers (Thermo Electron Corporation, Waltham, Mass. 02454, USA) in a 96-well format. The concentration of […] [γ-^33P] ATP (800 cpm/pmol) in the assays was one of three concentrations (5, 20 or 50 μM) in order to be at or below Km for ATP for the enzyme. Assays were initiated with MgATP and stopped by addition of 5 μl of 0.5M orthophosphoric acid. Assays were then harvested onto P81 filterplates using a unifilter harvester (PerkinElmer, Boston, Mass. 02118, USA), with a wash buffer of 50 mM orthophosphoric acid. Filterplates were then air dried overnight. 10 μl of Microscint O was added per well prior to counting for radioactivity.
(§2) MKK1, JNK/SAPK1c, SAPK2a/p38, SAPK2b/p38β2, SAPK3/p38γ, SAPK4/p38δ, MAPK2/ERK2, MAPKAP-K1β, MAPKAP-K2, MSK1, PRAK, PKA, PKCα, PDK1, SGK, p70S6K, GSK3β, ROCK-II, PRK2, AMPK, CHK1, CHK2, CK2, PHK, LCK, were assayed according to Davies et al., (Davies, S. P., Reddy, H., Caivano, M. and Cohen, P. Biochem. J. 351, 95-105, 2000.
(§3) CSK and CDK2/cyclinA, were assayed according to Bain et al. (Bain J, McLauchlan H, Elliott M, Cohen P. Biochem J. 371, 199-204, 2003., except that ATP concentrations were either 5, 20 or 50 micromolar so that they were at or below the Km for ATP. The ATP concentrations used were as follows, 5 μM for assays of MKK1, SAPK3, SAPK4, GSK3β, PRK2 CK2 20 μm for assays of JNK, SAPK2β, MAPKAP-K2, MSK1, PRAK, PKA, […], PDK1, SGK, p70S6K, ROCK-II, CHK1, CHK2, CSK, CDK2, and 50 μM for assays of SAPK2a, MAPK2/ERK2, AMPK, LCK, PHK and MAPKAP-K1β.

In another assay the target is JNK3 (Homo sapiens, UniProt P53779). Kind of assay: JNK3 33P kinase assay. The note with it: read-out: JNK3 activity as percentage of control without inhibitor. As to the method:
as §1
(§4) The following kinases were assayed against the substrates indicated. Aurora B was assayed against the substrate peptide […] (300 μM), ERK8 and MST-2 were both assayed against MBP (0.33 mg/ml). IKKβ was assayed against the substrate peptide […] (300 μM), JNK3 was assayed against 3 μM ATF2[19-96]. MAPKAP-K3 and PKD1 were both assayed against […] (30 μM), MARK3 was assayed against CHKtide ([…]) substrate peptide (300 μM). MNK1 and MNK2 were both assayed against eIF4E protein (0.5 mg/ml). NEK7 was assayed against […] (300 μM), PIM2 was assayed against […] (300 μM), ΔPH PKBβ-S474D was assayed against Crosstide (30 μM), PLK1 was assayed against […] (300 μM). PRK2 was assayed against Long S6 peptide, […] (30 μM), RSK2 was assayed against […] (30 μM), SRC was assayed against cdc2 peptide, […], (300 μM) and SRPK1 was assayed against peptide […] (300 μM). All enzymes were diluted in 50 mM Tris/HCl pH 7.5, 0.1 mM EGTA, 1 mg/ml BSA, 0.1% β-mercaptoethanol buffer and assayed in an incubation containing 50 mM Tris/HCl pH7.5, 0.1 mM EGTA, 0.1% β-mercaptoethanol, CAMK-1 (5-20 mU) diluted in 50 mM Tris/HCl pH 7.5, 0.1 mM EGTA, 1 mg/ml BSA, 0.1% β-mercaptoethanol is assayed against substrate peptide […] in an incubation containing 50 mM Tris/HCl pH 7.5, 0.1 mM EGTA, 0.5 mM CaCl2, 0.3 μM calmodulin, 0.1% β-mereaptoethanol, 300 μM substrate peptide, 10 mM magnesium acetate and 0.05 mM [^33P-γ-ATP] (500-1000 cpm/pmole). EF2K (5-20 mU) diluted in 50 mM Hepes pH 6.6, 0.1% β-mercaptoethanol, 1 mg/ml BSA is assayed against a substrate peptide […] in an incubation containing 50 mM Hepes pH 6.6, 0.2 mM CaCl2, 0.3 μM Calmodulin, 0.05% b-mercaptoethanol, 300 μM substrate peptide, 10 mM magnesium acetate and 0.05 mM [^33P-γ-ATP] (500-1000 cpm/pmole).

Another assay addresses SAPK2a/p38 (Homo sapiens, UniProt Q16539). Description: SAPK2a/p38 33P kinase assay. The settings on record: read-out: SAPK2a/p38 activity as percentage of control without inhibitor. On the procedure: as §1, §2, §3
Another assay deals with SAPK2b/p38β2 (Homo sapiens, UniProt Q15759). Description: SAPK2b/p38β2 33P kinase assay. The settings on record: read-out: SAPK2b/p38β2 activity as percentage of control without inhibitor; for remaining activity at 1 µM: inhibitor 1 μM. On the procedure: as §1, with “Assays” for “All assays (25.5 μl) were carried out at room temperature (21° C.) and were linear with respect to time and enzyme concentrations under the conditions used. Assays”
as §2, §3

The target in the next assay is PRK2 (Homo sapiens, UniProt Q16513). Description: PRK2 33P kinase assay. The note with it: read-out: PRK2 activity as percentage of control without inhibitor. As to the method: as §1, §2, §3, §4
PRK2, sequence (Q16513 whole entry, species assumed): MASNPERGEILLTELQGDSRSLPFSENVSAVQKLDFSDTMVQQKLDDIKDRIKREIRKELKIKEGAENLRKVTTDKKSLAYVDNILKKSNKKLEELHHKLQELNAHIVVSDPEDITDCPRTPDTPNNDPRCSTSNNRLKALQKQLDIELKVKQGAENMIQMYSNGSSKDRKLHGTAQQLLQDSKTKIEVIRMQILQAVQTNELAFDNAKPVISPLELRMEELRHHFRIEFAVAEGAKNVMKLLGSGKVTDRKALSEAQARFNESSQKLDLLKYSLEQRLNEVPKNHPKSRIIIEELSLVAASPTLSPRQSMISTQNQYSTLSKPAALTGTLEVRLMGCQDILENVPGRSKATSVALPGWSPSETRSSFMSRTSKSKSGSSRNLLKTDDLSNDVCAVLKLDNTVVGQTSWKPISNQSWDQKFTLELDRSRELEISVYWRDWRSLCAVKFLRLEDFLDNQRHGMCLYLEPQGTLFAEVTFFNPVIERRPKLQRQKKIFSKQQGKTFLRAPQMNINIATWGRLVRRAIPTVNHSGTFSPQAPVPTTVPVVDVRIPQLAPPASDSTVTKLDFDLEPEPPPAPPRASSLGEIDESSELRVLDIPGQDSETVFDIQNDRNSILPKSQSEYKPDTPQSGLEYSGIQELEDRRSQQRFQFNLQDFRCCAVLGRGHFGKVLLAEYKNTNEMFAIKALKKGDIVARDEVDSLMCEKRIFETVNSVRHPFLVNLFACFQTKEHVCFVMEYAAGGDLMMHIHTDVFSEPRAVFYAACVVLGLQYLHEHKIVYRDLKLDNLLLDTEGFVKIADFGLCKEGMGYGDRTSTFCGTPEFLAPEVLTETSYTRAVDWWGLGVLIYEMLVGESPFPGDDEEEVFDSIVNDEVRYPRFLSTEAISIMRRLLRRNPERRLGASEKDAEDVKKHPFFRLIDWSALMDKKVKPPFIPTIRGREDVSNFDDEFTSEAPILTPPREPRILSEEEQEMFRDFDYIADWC

SAPK2a/p38, sequence (Q16539 whole entry): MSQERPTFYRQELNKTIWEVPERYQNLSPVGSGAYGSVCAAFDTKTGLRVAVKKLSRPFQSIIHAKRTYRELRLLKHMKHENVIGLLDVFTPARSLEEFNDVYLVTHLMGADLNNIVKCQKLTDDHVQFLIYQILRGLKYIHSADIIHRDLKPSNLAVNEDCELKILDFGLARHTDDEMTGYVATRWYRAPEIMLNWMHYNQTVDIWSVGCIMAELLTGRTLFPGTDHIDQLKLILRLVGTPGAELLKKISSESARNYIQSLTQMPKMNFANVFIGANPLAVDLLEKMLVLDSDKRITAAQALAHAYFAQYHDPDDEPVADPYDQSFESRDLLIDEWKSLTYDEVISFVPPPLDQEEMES
JNK/SAPK1c, sequence (P45983 whole entry): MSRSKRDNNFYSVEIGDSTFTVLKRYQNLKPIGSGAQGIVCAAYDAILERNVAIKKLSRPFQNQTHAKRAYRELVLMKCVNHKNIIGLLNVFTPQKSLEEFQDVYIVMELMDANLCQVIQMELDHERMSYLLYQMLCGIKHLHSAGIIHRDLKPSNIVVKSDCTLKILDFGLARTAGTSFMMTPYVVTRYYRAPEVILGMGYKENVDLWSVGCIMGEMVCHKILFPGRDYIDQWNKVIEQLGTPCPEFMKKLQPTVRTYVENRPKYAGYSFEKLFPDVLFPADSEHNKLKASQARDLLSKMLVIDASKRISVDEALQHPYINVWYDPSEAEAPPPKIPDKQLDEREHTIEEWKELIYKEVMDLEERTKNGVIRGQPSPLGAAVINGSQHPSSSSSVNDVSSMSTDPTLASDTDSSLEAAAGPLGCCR
JNK3, sequence (P53779 whole entry, species assumed): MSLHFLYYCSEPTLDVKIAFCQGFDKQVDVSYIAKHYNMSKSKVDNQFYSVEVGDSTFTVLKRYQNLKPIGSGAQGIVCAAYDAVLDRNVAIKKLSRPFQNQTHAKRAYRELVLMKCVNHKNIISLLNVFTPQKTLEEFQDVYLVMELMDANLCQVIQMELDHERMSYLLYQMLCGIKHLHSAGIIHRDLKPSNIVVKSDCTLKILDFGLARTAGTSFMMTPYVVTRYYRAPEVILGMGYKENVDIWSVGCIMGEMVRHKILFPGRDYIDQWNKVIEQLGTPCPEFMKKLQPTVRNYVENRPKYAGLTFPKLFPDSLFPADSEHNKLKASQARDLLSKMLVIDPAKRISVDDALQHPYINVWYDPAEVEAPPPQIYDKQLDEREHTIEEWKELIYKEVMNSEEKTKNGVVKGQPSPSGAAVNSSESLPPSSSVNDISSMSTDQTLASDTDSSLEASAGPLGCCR
SAPK2b/p38β2, sequence (Q15759 whole entry): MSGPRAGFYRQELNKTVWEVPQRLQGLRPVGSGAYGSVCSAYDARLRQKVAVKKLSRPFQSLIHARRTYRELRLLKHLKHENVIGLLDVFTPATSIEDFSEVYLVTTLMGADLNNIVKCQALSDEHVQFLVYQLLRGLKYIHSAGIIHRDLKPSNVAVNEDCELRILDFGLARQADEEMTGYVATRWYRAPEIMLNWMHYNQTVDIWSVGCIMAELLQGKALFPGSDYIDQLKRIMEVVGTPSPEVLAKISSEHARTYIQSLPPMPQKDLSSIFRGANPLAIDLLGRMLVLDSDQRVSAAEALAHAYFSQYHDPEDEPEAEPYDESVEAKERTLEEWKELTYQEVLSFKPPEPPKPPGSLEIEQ

On to `COc1ccc2c(c1)[nH]c1c(C)nccc12` [Harmine], for which the remaining activity at 1 µM at JNK/SAPK1c was 85%; at JNK3, 89%; on SAPK2a/p38, 95%; at PRK2, 82%. For the same compound, the remaining activity at 10 µM was found to be 69% on JNK/SAPK1c; 83% at JNK3; 81% on SAPK2a/p38; 87% at SAPK2b/p38β2; 45% on PRK2.

With `CC1=NCCc2c1[nH]c1cc(O)ccc21` [Harmalol], the remaining activity at 1 µM on JNK/SAPK1c (inhibitor 1 μM) came to 87%; at JNK3 (inhibitor 1 μM), 92%; on SAPK2a/p38 (inhibitor 1 μM), 95%; on SAPK2b/p38β2, 88%; on PRK2 (inhibitor 1 μM), 86%. Further, the remaining activity at 10 µM on JNK/SAPK1c (inhibitor 10 μM) amounted to 84%; on JNK3 (inhibitor 10 μM), 94%; on SAPK2a/p38 (inhibitor 10 μM), 74%; on SAPK2b/p38β2 (inhibitor 10 μM), 79%; on PRK2 (inhibitor 10 μM), 54%.

In the case of `COc1ccc2c3c([nH]c2c1)C(C)=NCC3` [Harmaline], the remaining activity at 1 µM on JNK/SAPK1c came out at 99%; on JNK3, 87%; on SAPK2a/p38 it was 89%; at SAPK2b/p38β2 it was 91%; at PRK2 (inhibitor 1 μM), 97%. In addition, the remaining activity at 10 µM came out at 96% on JNK/SAPK1c; 81% at JNK3; 86% at SAPK2a/p38; 93% at SAPK2b/p38β2 (inhibitor 10 μM); 83% on PRK2 (inhibitor 10 μM).
